# Experiments:
# coconut LPAAT = target: T1, coconut LPAAT (Cocos nucifera, UniProt Q42670); test: Acyl-CoA specificity of coconut LPAAT expressed in E. coli (pCGN5505), membrane fractions; format: biochemical; parameters: the SalI/BamHI fragment of pCGN5504 containing the entire coconut LPAAT encoding region; made in house; host or cells: E. coli BL21(DE3), membrane fractions; conditions: acceptor 12:0-LPA
# T1 sequence (Q42670 1-308): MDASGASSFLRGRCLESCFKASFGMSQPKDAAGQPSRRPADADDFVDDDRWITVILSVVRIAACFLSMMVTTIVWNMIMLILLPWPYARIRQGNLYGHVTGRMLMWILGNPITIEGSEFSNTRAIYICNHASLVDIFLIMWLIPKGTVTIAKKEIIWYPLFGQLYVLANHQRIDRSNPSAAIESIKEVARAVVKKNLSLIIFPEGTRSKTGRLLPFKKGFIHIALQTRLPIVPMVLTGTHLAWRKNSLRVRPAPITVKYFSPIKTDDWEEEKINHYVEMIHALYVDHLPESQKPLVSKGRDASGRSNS
# Procedure: The samples are centrifuged at 12,000 g for 15 minutes. The resulting supernatant fractions are centrifuged for two hours at 134,000 g, and the pelleted membranes suspended in 50 mM HEPES, 200 mM NaCl, 20% (w/v) glycerol, 5 mM β-mercaptoethanol, pH 7.5. Membrane fractions are assayed for acyl-CoA substrate specificities with 12:0-LPA and various acyl-CoA species as described in Example 1. Membrane preparations from cultures of E. coli and from immature coconut endosperm are combined with soybean phospholipids and diluted in 1M NaCl in Buffer A to simulate the pre-assay conditions of the solubilized enzyme.
# [1] = target: T2, coconut medium-chain LPAAT (Cocos nucifera, UniProt Q42670); test: Assay of solubilized coconut LPAAT (S3 preparation) with phospholipid activation; format: biochemical; conditions: radioactivity of PA product resolved on TLC, after 30 min assay; S3 reactivated with PLs; acceptor 12:0-LPA
# T2 construct: The frozen coconut P2 preparation is thawed and diluted in a volume of P2 Buffer; from tissue; host or cells: immature coconut endosperm, solubilized S3 supernatant of P2 membranes
# T2 sequence (Q42670 1-308): T1 sequence (Q42670 1-308)
# Procedure: After solubilization of LPAAT protein from plant membranes as described below, modification of the above assay conditions is required in order to detect maximum LPAAT activity. This is especially important after the solubilized LPAAT has been chromatographed on at least one column. The important modification to the assay is the addition, at the start of the assay procedure, of 1 μl of a concentrated phospholipid (PL) solution to 20 μl of the LPAAT-containing sample in a glass vial. The high concentrations of CHAPS (at least 1% w/v) and NaCl (typically 0.5M or greater) in the solubilized LPAAT preparation aid in dispersal of the phospholipids. The phospholipid solution is obtained by sonicating crude soybean phospholipids (L-phosphatidylcholine from soybean, "Type IVs" obtained from Sigma Chemical Company, St. Louis) at 50 mg/ml in 0.5% (w/v) CHAPS (3-[(3-cholamidopropyl) -dimethylammonio]-1-propane-sulfonate) until a uniform suspension is obtained.
# The remaining assay ingredients (as described above), with the exception of the acyl-CoA substrate, are then added as 219 μl of a mixture. […] Radiolabeled acyl-CoA (10 μl, or an appropriately adjusted volume as indicated above) is added to start the LPAAT-catalyzed reaction and the rest of the assay procedure is completed as described above.
# All steps are carried out at 0-4° C. The frozen coconut P2 preparation is thawed and diluted in a volume of P2 Buffer to achieve a protein concentration of 0.94 mg/ml P2 protein. Protein concentration is determined by Coomassie dye staining relative to a bovine serum albumin standard. The P2 membrane suspension is then diluted with an equal volume of Solubilization Buffer (50 mM HEPES-NaOH, pH 7.5, […], 20% (w/v) glycerol, 4.5% (w/v) CHAPS, 100 μM Pefabloc, 1 μM leupeptin, 1 μM Pepstatin A, and 5 mM β-ME), resulting in final concentrations of 1M NaCl, 2.25% (w/v) detergent, and 0.47 mg/ml protein. These component concentrations, and the resulting detergent/protein ratio of 48/1 (w/w), are important for optimal solubilization. The preparation is then incubated on ice for 30 minutes with occasional, gentle stirring, followed by centrifugation at 252,000×g for 2 hours. The resulting supernatant fraction (S3) is filtered through buffer-wetted Miracloth, and may then be stored frozen (-70) with only slight loss of activity. Optimally, it is applied to chromatography columns without an intervening freeze-thaw cycle.
# Assay of the coconut medium-chain LPAAT activity after solubilization (S3 preparation) and reactivation with PLs, using different acyl-CoA substrates, provides the following results (Table 3). In all these assays the acceptor substrate is 12:0-LPA.
Structure (SMILES),utilization by E. coli expressed coconut LPAAT (coconut LPAAT),"LPAAT Activity, solubilized coconut LPAAT [1] [cpm]"
CCCCCCCC(=O)SCCNC(=O)CCNC(=O)[C@H](O)C(C)(C)COP(=O)(O)OP(=O)(O)OC[C@H]1O[C@@H](n2cnc3c(N)ncnc32)[C@H](O)[C@@H]1OP(=O)(O)O [8:0],some minor activity detectable,16
"CCCCCCCC/C=C\CCCCCCCC(=O)SCCNC(=O)CCNC(=O)[C@H](O)C(C)(C)COP(=O)(O)OP(=O)(O)OC[C@H]1O[C@@H](n2cnc3c(N)ncnc32)[C@H](O)[C@@H]1OP(=O)(O)O [18:1, oleoyl-CoA]",,30
CCCCCCCCCCCCCC(=O)SCCNC(=O)CCNC(=O)[C@H](O)C(C)(C)COP(=O)(O)OP(=O)(O)OC[C@H]1O[C@@H](n2cnc3c(N)ncnc32)[C@H](O)[C@@H]1OP(=O)(O)O [14:0],most active,84
CCCCCCCCCC(=O)SCCNC(=O)CCNC(=O)[C@H](O)C(C)(C)COP(=O)(O)OP(=O)(O)OC[C@H]1O[C@@H](n2cnc3c(N)ncnc32)[C@H](O)[C@@H]1OP(=O)(O)O [10:0],most active,162
"CCCCCCCCCCCC(=O)SCCNC(=O)CCNC(=O)[C@H](O)C(C)(C)COP(=O)(O)OP(=O)(O)OC[C@H]1O[C@@H](n2cnc3c(N)ncnc32)[C@H](O)[C@@H]1OP(=O)(O)O [12:0, lauroyl-CoA]",most active,205
CCCCCCCCCCCCCCCC(=O)SCCNC(=O)CCNC(=O)[C@H](O)C(C)(C)COP(=O)(O)OP(=O)(O)OC[C@H]1O[C@@H](n2cnc3c(N)ncnc32)[C@H](O)[C@@H]1OP(=O)(O)O [16:0],,18
